In PubChem BioAssay (NCI):
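96-well plates; 48 h exposure; 5 concentrations. Endpoints by linear interpolation between flanking doses. Not reached: highest tested concentration assigned. At the GI50, growth is halved. TGI marks complete inhibition of growth.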

Legend:
Assay in all cases: NCI tumour cell line growth inhibition, 48 h
A498 renal = test system: A498 renal
HCT-15 colon = test system: HCT-15 colon
NCI-H226 lung = test system: NCI-H226 lung
NCI-H460 lung = test system: NCI-H460 lung
RPMI-8226 leukemia = test system: RPMI-8226 leukemia
RXF 393 renal = test system: RXF 393 renal
SNB-75 CNS = test system: SNB-75 CNS
UACC-257 melanoma = test system: UACC-257 melanoma
CAKI-1 renal = test system: CAKI-1 renal
SK-MEL-5 melanoma = test system: SK-MEL-5 melanoma

| Compound | TGI (A498 renal) [µM] | TGI (HCT-15 colon) [µM] | TGI (NCI-H226 lung) [µM] | TGI (NCI-H460 lung) [µM] | TGI (RPMI-8226 leukemia) [µM] | TGI (RXF 393 renal) [µM] | TGI (SNB-75 CNS) [µM] | TGI (UACC-257 melanoma) [µM] | TGI (CAKI-1 renal) [µM] | TGI (SK-MEL-5 melanoma) [µM] | GI50 (A498 renal) [µM] | GI50 (CAKI-1 renal) [µM] | GI50 (HCT-15 colon) [µM] | GI50 (NCI-H226 lung) [µM] | GI50 (NCI-H460 lung) [µM] | GI50 (RXF 393 renal) [µM] | GI50 (SK-MEL-5 melanoma) [µM] | GI50 (SNB-75 CNS) [µM] | GI50 (UACC-257 melanoma) [µM] | GI50 (RPMI-8226 leukemia) [µM] |
| --- | --- | --- | --- | --- | --- | --- | --- | --- | --- | --- | --- | --- | --- | --- | --- | --- | --- | --- | --- | --- |
| CC(C)=CC(=O)CC(=O)C(=O)Nc1ccc(Cl)c(Cl)c1 | > 100 | > 100 | > 100 | > 100 | > 100 | > 100 | > 100 | > 100 |  |  |  |  |  |  |  |  |  |  |  |  |
| O=c1[nH]cc(OCC(F)(F)F)c(=O)[nH]1 | > 100 | > 100 |  | > 100 | > 100 | > 100 | > 100 | > 100 | > 100 | > 100 |  |  |  |  |  |  |  |  |  |  |
| C/C=C(/CCCCNCCCC)[Si](C)(C)C | 29.4 | 30 |  | 31.9 |  | 21 | 27 | 30.3 |  | 26.6 |  |  |  |  |  |  |  |  |  |  |
| FC(F)(F)C12C34C=CC5(CCC6(C=CC1(CC3)O6)C52C(F)(F)F)O4 (configuration not stated) | > 100 |  | > 100 | > 100 |  | > 100 |  | > 100 | > 100 |  |  |  |  |  |  |  |  |  |  |  |
| CC(=O)NC(CCCN(Cc1ccccc1)C(=O)N(CCCl)N=O)C(=O)NCc1ccccc1 (configuration not stated) | > 72 | > 100 | > 94.2 | > 79.6 | > 100 | 68.9 | 63.9 | > 100 |  | > 76.7 |  |  |  |  |  |  |  |  |  |  |
| COc1cc(Oc2c(O)c(C)c(OC)c(C(C)=O)c2O)c(C(C)=O)c(O)c1C |  | > 100 | > 100 | > 100 |  | > 100 | > 100 | > 100 | > 100 | > 100 |  |  |  |  |  |  |  |  |  |  |
| C=C(C)[C@@H]1CC[C@@]2(C)[C@H]1[C@H]1CCC3[C@@]4(C)CC[C@H](O)C(C)(C)[C@@H]4CC[C@@]3(C)[C@]1(C)C[C@@H]2O (some centres not stated) | > 100 | > 100 | > 100 | > 100 |  | > 100 | > 100 | > 100 | > 100 | 57.2 |  |  |  |  |  |  |  |  |  |  |
| CCOC(=O)N1CCN(S(=O)(=O)c2oc(-c3ccc(Cl)cc3)nc2C#N)CC1 | > 100 | 3.3 | > 100 | 46 |  | 3.25 | > 100 | 7.71 | 3.14 | 6.46 | 17.2 | 1.75 | 1.49 | 64.3 | 15 | 1.82 | 2.51 | 11.4 | 2.37 |  |
| O=C1C(=O)N(C2C3CC4CC(C3)CC2C4)C(=O)C(=O)C1c1nc2ccccc2o1 (configuration not stated) |  | > 100 | > 100 | > 100 | > 100 | > 100 | > 100 | > 100 | > 100 |  |  |  |  |  |  |  |  |  |  |  |
| CC1=CC(=O)C(C(C)=Nc2ccccc2Cl)C(=O)O1 (configuration not stated) | > 100 | > 100 | > 100 | > 100 | > 100 | > 100 |  | > 100 | > 100 | > 100 | > 100 | > 100 | > 100 | > 100 | > 100 | > 100 | > 100 |  | > 100 | > 100 |
| CC(=O)C1=C([O-])C(C)OC1=O.CC(=O)C1=C([O-])C(C)OC1=O.[NH-]C1CCCC[C@H]1[NH-].[Pt+4] (configuration not stated) | > 100 | > 100 |  | > 100 | > 100 | > 100 |  | > 100 | > 100 | > 100 | 15.8 | 35.9 | 67.4 |  | 30.5 | > 100 | 57.5 |  | > 100 | 8.72 |
| Nc1nc(OCc2ccccc2)nc2[nH]ncc12 | 26.4 | > 100 | 32.6 | 88.8 | 38.6 |  |  | 37.1 | 33.2 | 28.3 | 11.2 | 11.1 | 30.9 | 14.8 | 24 |  | 14.9 |  | 19 | 15.2 |
| CC1CC2(CC[C@@H]1O)OCCO2 (some centres not stated) | > 100 | > 100 |  | > 100 | > 100 | > 100 |  | > 100 | > 100 | > 100 |  |  |  |  |  |  |  |  |  |  |
| CCOC(=O)/C(C#N)=C1\N[C@H](C(=O)OCC)CO1 |  | > 100 | > 100 | > 100 | > 100 | > 100 |  | > 100 | > 100 | > 100 |  |  |  |  |  |  |  |  |  |  |
| CCOc1ccc(NC(=O)CC2SC(N)=NC2=O)cc1 (configuration not stated) |  |  | > 100 | > 100 | > 100 | > 100 | > 100 | > 100 |  | > 100 |  |  |  |  |  |  |  |  |  |  |
| CS(=O)(=O)Nc1cc(-c2ccc3ncnc(Nc4ccc5c(cnn5Cc5ccc(F)cc5)c4)c3c2)cnc1Cl | 3.4 | 21.3 | 11 | 13.3 |  | 2.26 | 2.97 | 17.9 |  | 2.89 | 1.33 |  | 3.21 | 2.18 | 2.8 | 0.38 | 1.52 | 0.211 | 2.17 |  |
| O=C1c2ccccc2C(=O)C1C(c1ccc([N+](=O)[O-])cc1)C1C(=O)c2ccccc2C1=O |  | > 100 | > 100 | > 100 | > 100 | 32.9 | > 100 | > 100 | 95 | > 100 |  |  |  |  |  |  |  |  |  |  |
| C/C1=C\CC[C@@](C)(O)[C@@H]2CC3[C@@H](OC(=O)C34CC4)[C@@H](O2)[C@H](C)CCC1 (some centres not stated) |  | 58 |  | 24.7 | > 100 |  | > 100 | 44.1 | 34.4 | 30.7 |  | 18 | 23.7 |  | 12 |  | 10.6 | 41.9 | 20.4 | 30.1 |
| O=C(Nc1cc(Cl)c(Cl)cc1Cl)C(=O)C(C(=O)c1ccc(Cl)c(Cl)c1)C1OC(=O)c2ccccc21 (configuration not stated) | 41.9 | 40.3 | 22.7 | 10.8 | 86.7 | 21.9 |  | 27.5 | 46.3 |  |  |  |  |  |  |  |  |  |  |  |
